What was measured:
HcoV-229E = assay: MTT cell viability assay of HcoV-229E-infected Vero E6 cells; assay type: cell-based, human coronavirus 229E
Method: Vero E6 cells were divided into 5 groups, including one normal control group, one pathological control group, and three experimental groups (i.e., experimental groups 1 to 3). Each group of the Vero E6 cells was incubated in a respective well of a 96-well culture plate containing 100 μL of E2 medium at 2×10^4 cells/well, followed by cultivation in an incubator (37° C., 5% CO2) for 24 hours. Afterwards, the culture medium in each well was removed, and the cells of the experimental groups 1 to 3 were pretreated with 8-benzoyl-4-methyl-9-phenyl-furo[2,3-h]chromen-2-one (i.e., HP520-2) (Cat. No. STL-513320, Vitas-M Laboratory) respectively at concentrations of 20 nM, 40 nM, and 80 nM, followed by adding 150 μL of the HcoV-229E solution prepared in section 2 of General Experimental Materials. […]
Each group was cultivated in an incubator (37° C., 5% CO2) for 96 hours. […] After cultivation in an incubator (37° C., 5% CO2) for 2 hours, the respective resultant cell culture was added with 150 μL of dimethyl sulfoxide (DMSO), followed by subjecting the mixture thus obtained to determination of absorbance at a wavelength of 590 nm (OD590) by an ELISA reader.
The cell viability rate (%) was calculated using the following Equation (I): […]

SARS-CoV-2 = assay: Viral plaque reduction assay; assay type: cell-based; settings: SARS-CoV-2-infected Vero E6 cells, m.o.i. 0.01, HP520-2, 72 hours, versus pathological control group
[1] = test system: Envelope (E) gene of SARS-CoV-2; assay: Quantitative determination of viral gene expression (real-time PCR of E gene); assay type: cell-based, severe acute respiratory syndrome coronavirus 2; settings: Vero E6 cells pretreated at 15.625 nM and 62.5 nM (experimental groups 2 to 3), m.o.i. 0.01, versus pathological control group

Compound: Cc1cc(=O)oc2c1ccc1oc(C(=O)c3ccccc3)c(-c3ccccc3)c12 [HP520-2, 8-benzoyl-4-methyl-9-phenyl-furo[2,3-h]chromen-2-one]
- EC50 (HcoV-229E; Human coronavirus 229E, Vero C1008, Vero E6 cells, HcoV-229E, 96 hours, MTT, n=3, mean±SD): 39 ± 15 nM
- cell viability rate (HcoV-229E; Vero E6 cells pretreated at 20 nM, 40 nM, 80 nM, versus pathological control group, FIG. 1): significantly higher than that determined in the pathological control group
- number of viral plaques (SARS-CoV-2): lower than that determined in the pathological control group
- relative RNA expression level of E gene of SARS-CoV-2 [1]: significantly lower than that of the pathological control group
